Experimental data reported in US20060084599A1, “Compositions, methods and kits relating to notch signaling” (Maine Medical Center, priority 2003, published 2006).
Marks after values point to notes of the source that are not given here.

B1: sDl1: soluble non-transmembrane form (extracellular domain) of the Notch ligand Delta1 (protein)
chain: QVWSSGVFELKLQEFVNKKGLLGNRNCCRGGAGPPPCACRTFFRVCLKHYQASVSPEPPCTYGSAVTPVLGVDSFSLPDGGGADSAFSNPIRFPFGFTWPGTFSLIIEALHTDSPDDLATENPERLISRLATQRHLTVGEEWSQDLHSSGRTDLKYSYRFVCDEHYYGEGCSVFCRPRDDAFGHFTCGERGEKVCNPGWKGPYCTEPICLPGCDEQHGFCDKPGECKCRVGWQGRYCDECIRYPGCLHGTCQQPWQCNCQEGWGGLFCNQDLNYCTHHKPCKNGATCTNTGQGSYTCSCRPGYTGATCELGIDECDPSPCKNGGSCTDLENSYSCTCPPGFYGKICELSAMTCADGPCFNGGRCSDSPDGGYSCRCPVGYSGFNCEKKIDYCSSSPCSNGAKCVDLGDAYLCRCQAGFSGRHCDDNVDDCASSPCANGGTCRDGVNDFSCTCPPGYTGRNCSAPVSRCEHAPCHNGATCHERGHRYVCECARGYGGPNCQFLLPELPPGPAVVDLTEKLEGQGGPFPW
modifications: left off: small tags and cut ends
notes: soluble non-transmembrane form (extracellular domain) of the Notch ligand Delta1

Key:
Assay type in all cases: cell-based, murine
FGF1.A transcript = assay: RT-PCR analysis of FGF1.A mRNA in NCSC; settings: 48 hours; 7.5 nM sJ1, 5.0 nM sDl1, 10 μg/ml α-thrombin or 5 μg/ml TRAP
cortical neurospheres = assay: Cortical neurosphere model, secondary sphere formation; settings: for F/SP × 10^2 / Cells/Founder (F) / Secondary Spheres (SP): at day 10; for Cells/Founder (F) / Secondary Spheres (SP): mean ± SD of three experiments; for secondary spheres per primary sphere: primary spheres grown 2 weeks with factor, secondary spheres in standard media
Text: Murine E13 cerebral cortices were dissected, the ventricular zone isolated, dissected free of the meninges and utilized as a source for the generation of clonal neurspheres. The resulting cells were dispersed by aspiration to produce single cells and cells expressing the […], CD24 as previously described (Rietze et al., 2001), and peanut agglutinin antigen (PNA) were sorted using a FASC Vantage SE cell sorter at a low gate (CD24^low/PNA^low), and the cells were subjected to immunofluoresence microscopy using an antibody against CD24 (Rietze et al., 2001, Nature 412:736-739). Double-positive cells (2×10^3 /ml) were plated in suspension as described (Reynolds et al., 1992, J. Neurosci. 12:4565-4574; Reynolds et al., 1992, Science 255:1707-1710) and secondary neurospheres generated 14 days later by isolating single spheres followed by trypsin digestion of each sphere. Cells obtained from the sphere were placed in suspension culture at a clonal cell seed density and colonies selected.
The E14 prefrontal ventricular zone was dissected and plated at a clonal neurosphere-forming density in the presence of either sJ1, sDl1, thrombin, TRAP or no supplementation. After 2 weeks, the clones were dissociated to single cells and secondary spheres were generated using standard media with no supplementation (Reynolds et al., 1992, J. Neurosci. 12:4565-4574).
Secondary spheres (SP) are formed from the dissociation of founder (F) spheres. The data presented are the number of colonies (mean ± SD of three experiments). (*=p#0.05).

NCSC populations [1] = assay: Clonogenic differentiation of primary NCSC clones (differentiation markers, GFAP immunoreactivity); settings: for NCSC clones not expressing gliogenic or neurogenic differentiation markers: after 7 days of expansion
Procedure: (§1) Clonogenic assays were performed as described (Stemple et al., 1992, Cell 71:973-985). Briefly, populations of murine NCSC were plated at a clonal density and maintained for a maximum of 14 days in Morrison media supplemented with 15% chick embryo extract (Morrison et al., 1999, Cell 96:737-749). The resulting clones were fixed in an acetic acid:ethanol solution (2:1) and stained with antibodies against peripherin (Chemicon) to detect neurons, smooth muscle actin (Sigma) to detect myofibroblasts, and GFAP (Chemicon) to detect Schwann cells. Clones were scored based on the appearance of just one phenotypic representative. The number and percentage of clones containing neurons only (N), Schwann cells only (S), myofibroblasts only (M), N+S, N+M, N+S+M, and S+M were scored at day 14 unless otherwise stated. The production of each representative phenotype in each individual clone was also scored to complement the clonal population assay.
Instead of examining the NCSC progeny after 14 days, developing clones were examined beginning at day 2 in order to determine the time period when gliogenic differentiation was initiated.
Specifically, clonogenic differentiation and serial subcloning assays were performed using NCSC clones incubated with either thrombin, sDl1, sJ1 or TRAP.

NCSC populations [2] = assay: Serial subcloning and clonogenic differentiation of secondary NCSC; parameters: G (glial only) colonies / Sm (smooth muscle only) colonies / G + Sm colonies: unit not given here; settings: for G (glial only) colonies / G + Sm colonies / N (neurons only) colonies / N + G + Sm (trifatent) colonies / N + G colonies / N + Sm colonies / Sm (smooth muscle only) colonies: differentiation profile of secondary NCSC clones; for G (glial only) colonies / G + Sm colonies / N (neurons only) colonies / N + G + Sm (trifatent) colonies / N + G colonies / N + Sm colonies / Sm (smooth muscle only) colonies / Secondary NSSC/ Founder: mean ± SD of three experiments; for clones that were trifatent (neurons, glial, and smooth muscle progeny): secondary clones from treated founder clones; for Secondary NSSC/ Founder: secondary stem cells from NCSC founders after ten days of expansion
Procedure: as §1
In order to generate secondary NCSC populations, founder clones originating from differentiating E10 clones at distinct time points during NCSC differentiation (days 2 through 18) were treated with trypsin and replated at a cell clonal density using methods previously described (Kubu et al., 2000, Genomics 70:150-152). The resulting cells were subjected to immunofluorescence microscopy using both p75^+ and P0^− antibodies (Kubu et al., 2000, Genomics 70:150-152) and the p75^+/P0^− cells identified as putative stem cells. All non-p75^+/P0^− cells were removed from the dish with a tungsten needle. The cultures of secondary NCSC clones were subjected to the clonogenic assay as described above.

[3] = tested on: Nestin, Nucleostemin, and Bmi1 transcripts; assay: RT-PCR of stem cell marker transcripts; settings: for levels of Nestin, Nucleostemin and Bmi1 transcripts: p75+/P0- neural crest stem cells, 24 and 48 hours; for relative expression of Nestin, Nucleostemin and Bmi1 transcripts: primary and secondary neurosphere cultures
Procedure: RT-PCR was performed with 1 μg RNA using the Platinum Taq One Step RT-PCR kit (Invitrogen) as follows: RT (30 minutes at 50° C.), PCR (40 cycles at 94° C. for 15 seconds, at 58° C. for 30 seconds and 72° C. for 1 minute). All amplified cDNA was visualized with ethidium bromide followed by 1.5% agarose gel electrophoresis. RT-PCR analysis of fgf and gapdh was performed as previously described elsewhere herein. RT-PCR analysis of stem cell RNA was performed as previously described (Verdi et al., 1994, Neuron 13:1359-1372; Verdi et al., 1996, Neuron 16:515-527) using primers generating amplification products of Nucleostemin from 894 to 1304 of the mouse cDNA (sense: Nucleostemin 894 5′-CAAATGTGGGGAAAAGCAGTGTCA-3′ [SEQ ID NO:34] and antisense: Nucleostemin 1304 5′-GCAGGGGGATGGCAATAGTAACC-3′ [SEQ ID NO:35]); Bmi1 from 242 to 632 of mouse cDNA (sense: Bmi 242 5′-AATTAGTCCCAGGGCTTTTCAA-3′ [SEQ ID NO:36] and antisense: Bmi 632 5′-GGGCCATTTCTTCTCCAGGTAT-3′ [SEQ ID NO:37]), and Nestin from 320-748 (sense: Nestin 320 5′-CA ACC TTG CCG AAG AGC TGG-3′ [SEQ ID NO:38] and antisense: Nestin 720 5′-TCTAAGCGACTCTCCGAGCGC-3′ [SEQ ID NO:39]). Each reaction product was measured as a ratio relative to the amplification product of actin and samples were run in triplicate. All RT-PCR experiments were performed at least three times from separate stem cell isolations. Dual Luciferase Reporter Assay

Molecule	expression of the FGF1.A transcript in NCSC (FGF1.A transcript)	F/SP × 10^2 (cortical neurospheres)	Cells/Founder (F) (cortical neurospheres)	Secondary Spheres (SP) (cortical neurospheres)	secondary spheres per primary sphere (cortical neurospheres)	NCSC clones not expressing gliogenic or neurogenic differentiation markers (NCSC populations [1]) [%]	percentage of the colony expressing the glial-specific protein (GFAP) (NCSC populations [1]; at day 7)	gliogenic differentiation of NCSC (NCSC populations [1]; two week differentiation assay)	G (glial only) colonies (NCSC populations [2])	G + Sm colonies (NCSC populations [2])	N (neurons only) colonies (NCSC populations [2])	N + G + Sm (trifatent) colonies (NCSC populations [2])	N + G colonies (NCSC populations [2])	N + Sm colonies (NCSC populations [2])	Sm (smooth muscle only) colonies (NCSC populations [2])	clones that were trifatent (neurons, glial, and smooth muscle progeny) (NCSC populations [2]) [%]	Secondary NSSC/ Founder (NCSC populations [2])	levels of Nestin, Nucleostemin and Bmi1 transcripts [3]	relative expression of Nestin, Nucleostemin and Bmi1 transcripts [3]	exposure time after which GFAP immunoreactive cells were detected (NCSC populations [1]; NCSC populations) [h]
sJ1: Soluble Jagged1, amino acid residues about 1 to 1067 (SEQ ID NO:3) of full-length human Jagged1	induced the expression of the FGF1.A transcript	10%*	527 ± 170*	55 ± 14	64±11	84±7	23±5	capable of inducing gliogenic differentiation of the NCSC population over the two week period	7.8 ± 1.4	3.4 ± 2.8	0	74.1 ± 9.1	7.0 ± 5.6	1.5 ± 1.7	6.2 ± 1.0	74.1±9	26.2 ± 6	no significant change	elevated	–
thrombin	induced the expression of the FGF1.A transcript	13%*	488 ± 166*	64 ± 11	55±14	75±11	–	–	0 ± 0	2.0 ± 2.1	0	86.8 ± 2.1	3.93 ± 3.8	4.5 ± 2.1	2.6 ± 1.01	86.8±2.1	36.8 ± 6.3	no significant change	elevated	–
B1	did not influence the steady-state levels of the FGF1.A transcript	2.0%	150 ± 69*	3 ± 3	3±3	0±0	–	–	72 ± 6.4	3.4 ± 2.8	0	0.5 ± 0.7	0	0	20.5 ± 6.5	0.5	0.6 ± 1.0	sharply decreased	–	48
